Experimental data reported in patent US9540691B2, “Assays and methods for selecting a treatment regimen for a subject with depression” (THE GENERAL HOSPITAL CORPORATION, priority 2011, dated 2017).
Read-outs that look alike come from different tables or passages of the source.

Test system: patients with major depressive disorder (MDD) resistant to treatment with SSRIs
Source text: Using the sequential parallel design […] For those randomly assigned to the placebo/placebo sequence, both responders and non-responders to placebo during the first phase (n=25) remain on placebo during the second phase. […] Data from the previous double-blind, placebo-controlled study (Trial 1) can be pooled into the instant study (Trial 2) to provide a more accurate estimate of the placebo effect size, with a weighted average from the two Phases 1 (one from Trial 1 and one from Trial 2) and two Phases 2 (one from Trial 1 and one from Trial 2).
Once patients agree to participate in the study by signing the informed consent document, a full medical and psychiatric history is taken and a physical examination is performed. Screen rating scales are performed. […] The double-blind treatment lasts 60 days, during which patients are seen every 10 days (Visits 1 to 6 of Phase 1—See Table 4 below). Subjects are assigned randomization numbers in consecutive order. The randomization list is provided by a computer-generated random-number list and is maintained by the research pharmacist. In addition, the presence of any side effect or adverse event is carefully documented with the SAFTEE-SI [54]. Reasons for premature discontinuation, including intolerable side effects, are recorded.
All patients are asked to take one tablet of blinded study medication in the morning, in addition to their stable dose of ongoing SSRI treatment. […] Therefore, for patients randomly assigned to the placebo/placebo sequence, the tablets of study medication are placebo during both phases of the study.
The primary efficacy measure can include the change in 17-item Hamilton Rating Scale for Depression (HAM-D-17) score. […] A remission is, for example, defined as a HAM-D-17 score less than 8 at endpoint. Secondary measures of efficacy can include change in CGI-severity, with “clinical response defined” as CGI-S of 1 or 2 at endpoint. Patients with a CGI-I score greater than 5 at any post baseline visit or a 50 percent or greater worsening of depressive symptoms from baseline to that visit are discontinued from the study. Subjects are also discontinued from the study with any emergence of suicidality, homicidality, mania, or psychosis. Additional exemplary instruments that can be administered according to the study schedule include the following: • (1) Structured Clinical Interview for DSM-IV: The SCID-I/P, administered by the clinician, proceeds by modules to diagnose the different Axis I disorders. Questions are asked exactly as written, and each is based on the individual criteria from DSM-IV. Answers are generally rated on a scale of 1-3 (1=doubtful, 2=probable, 3=definite), and, based on the number of positive answers, a diagnosis is determined by a clinician. While the entire SCID-UP is administered at screen, the mood module is administered at each follow up visit. • (2) The MGH Antidepressant Treatment History Questionnaire (MGH-ATR): The MGH-ATR provides specific criteria for the adequate dose and adequate length of a trial for it to be considered a failure, thus allowing clinicians to systematically collect data aimed at assessing the degree of treatment-resistance of the current major depressive episode. • (3) The 28-item Hamilton Depression Scale (HAM-D-28): This version allows scoring of the HAM-D-17, 21-, 25-, and 28-item scales. This instrument is completed by the clinician by using a structured interview and defined anchor points, and aims to quantify the degree of depression over the past 7 days. The HAM-D is the most widely studied instrument for depression, and its reliability and validity are high. • (4) Clinical Global Impressions-Severity and Improvement (CGI-S, CGI-I): These two instruments are scored 1-7 by the clinician based on assessment of the patient's clinical status. They measure, based on history and scores on other instruments: a) Depressive severity (CGI-S) and b) Clinical Improvement (CGI-I). […] Safety Measurements […]

[1] = 15 mg/day adjunct to SSRI, Phase 1
[2] = 15 mg/day adjunct to SSRI, Phase 2 (Phase 1 completers/non-responders only)
[3] = 15 mg/day adjunct to SSRI, pooled Phases 1 and 2 (SPCD)

CN1c2c(nc(N)[nH]c2=O)NC[C@@H]1CNc1ccc(C(=O)N[C@@H](CCC(=O)O)C(=O)O)cc1 [6(S)-5-MTHF, 6(S)-5-methyltetrahydrofolate]
CGI-S Mean score reduction (SD) [1]: −1.3 (0.9)
HDRS-17 % Remission [1]: 15.7% (3)
HDRS-17 % Response [1]: 38.8% (7)
HDRS-17 Mean score reduction (SD) [1]: −7.5 (5.0)
QIDS-SR % Remission [1]: 21.0% (4)
QIDS-SR % Responsive [1]: 36.8% (7)
QIDS-SR Mean score reduction (SD) [1]: −8.1 (5.3)
CGI-S Mean score reduction (SD) [2]: −0.5 (1.0)
HDRS-17 % Remission [2]: 11.1% (2)
HDRS-17 % Response [2]: 27.7% (5)
HDRS-17 Mean score reduction (SD) [2]: −3.8 (6.2)
QIDS-SR % Remission [2]: 8.5% (1)
QIDS-SR % Responsive [2]: 11.1% (2)
QIDS-SR Mean score reduction (SD) [2]: −1.3 (4.9)
CGI-S Mean score reduction [3]: −0.92
QIDS-SR % Remission [3]: 12.3%
QIDS-SR % Responsive [3]: 23.9%
QIDS-SR Mean score reduction [3]: −4.7
response rate (50% or greater reduction in HAM-D-17) vs placebo group (in words) (SSRI + 15 mg/day, after 30 days, SPCD, FIG. 3A): higher
reduction in scores of HAM-D-17, QIDS-SR and CGI-S vs placebo group (in words) (SSRI + 15 mg/day, after 30 days, SPCD, FIG. 3B): greater degree of reduction
percentage of remitters (HAM-D-17 <8 or QIDS-SR ≦5) vs placebo (in words) (SSRI + 15 mg/day, after 30 days, FIGS. 3C-3D): no significant difference
